For this assay, the system named is BDF1 mice, P388 leukemia ip, median survival T/C. Nature of the assay: NCI In Vivo Anticancer Drug Screen. Data for tumor model P388 Leukemia (intraperitoneal) in B6D2F1 (BDF1) mice. To be noted: endpoint: median survival time, higher = longer survival. An outline of the steps:
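Compound-treated tumour-bearing mice were compared with vehicle-treated controls. Survival was recorded, and the value is the treated-group measurement divided by the control-group measurement (T/C).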

The mark [1] stands for this setting: dose: 3.13 mg/kg/injection, schedule: Q01DX009 (ip), vehicle: saline.
The mark [2] stands for this setting: dose: 6.25 mg/kg/injection, schedule: Q01DX009 (ip), vehicle: saline.
Setting [3] is: dose: 100.0 mg/kg/injection, schedule: Q01DX009 (ip), vehicle: saline with Tween-80.
Setting [4] is: dose: 100.0 mg/kg/injection, schedule: Q04DX003 (ip), vehicle: saline with Tween-80.
[5] abbreviates: dose: 200.0 mg/kg/injection, schedule: Q01DX009 (ip), vehicle: saline with Tween-80.
[6] abbreviates: dose: 200.0 mg/kg/injection, schedule: Q04DX003 (ip), vehicle: saline with Tween-80.
Setting [7] is: dose: 400.0 mg/kg/injection, schedule: Q01DX009 (ip), vehicle: saline with Tween-80.
Where [8] appears, read: dose: 400.0 mg/kg/injection, schedule: Q04DX003 (ip), vehicle: saline with Tween-80.
[9] abbreviates: dose: 50.0 mg/kg/injection, schedule: Q01DX009 (ip), vehicle: saline with Tween-80.
The mark [10] stands for this setting: dose: 100.0 mg/kg/injection, schedule: Q01DX009 (ip), vehicle: Klucel (hydroxypropylcellulose) (HPC).
[11] abbreviates: dose: 100.0 mg/kg/injection, schedule: Q04DX003 (ip), vehicle: Klucel (hydroxypropylcellulose) (HPC).
Setting [12] is: dose: 200.0 mg/kg/injection, schedule: Q01DX009 (ip), vehicle: Klucel (hydroxypropylcellulose) (HPC).
[13] abbreviates: dose: 200.0 mg/kg/injection, schedule: Q04DX003 (ip), vehicle: Klucel (hydroxypropylcellulose) (HPC).
Where [14] appears, read: dose: 400.0 mg/kg/injection, schedule: Q04DX003 (ip), vehicle: Klucel (hydroxypropylcellulose) (HPC).
[15] abbreviates: dose: 25.0 mg/kg/injection, schedule: Q01DX009 (ip), vehicle: saline.
Setting [16] is: dose: 400.0 mg/kg/injection, schedule: Q01DX009 (ip), vehicle: Klucel (hydroxypropylcellulose) (HPC).
[17] abbreviates: dose: 100.0 mg/kg/injection, schedule: Q01DX001 (ip), vehicle: saline with Tween-80.
Where [18] appears, read: dose: 200.0 mg/kg/injection, schedule: Q01DX001 (ip), vehicle: saline with Tween-80.
Setting [19] is: dose: 400.0 mg/kg/injection, schedule: Q01DX001 (ip), vehicle: saline with Tween-80.
[20] abbreviates: dose: 6.25 mg/kg/injection, schedule: Q04DX003 (ip), vehicle: saline.
Setting [21] is: dose: 12.5 mg/kg/injection, schedule: Q04DX003 (ip), vehicle: saline.
[22] abbreviates: dose: 25.0 mg/kg/injection, schedule: Q04DX003 (ip), vehicle: saline.

SMILES strings stand for the structures. Several values for one entry are separate records, joined by “and”; a condition that tells them apart may be missing. Equal entries are not always repeated. Inconclusive results and toxic doses are left out.

For `O=C(Nc1ccccc1F)Nc1cc(Cl)ccc1Cl`, the T/C runs as follows: (dose: 50.0 mg/kg/injection, schedule: Q04DX003 (ip), vehicle: saline sonified) 90 % of control; (dose: 100.0 mg/kg/injection, schedule: Q04DX003 (ip), vehicle: saline sonified) 86 % of control; (dose: 200.0 mg/kg/injection, schedule: Q04DX003 (ip), vehicle: saline sonified) 90 % of control.

For the compound `OCC1OC(n2cnc3c(SCc4ccccc4)nc(NO)nc32)C(O)C1O` (centres undefined), the T/C (dose: 200.0 mg/kg/injection, schedule: Q01DX009 (ip), vehicle: acetone) was 100 % of control.

`COC1OC(COC(C)=O)C(OC(C)=O)C(OC(C)=O)[CH]1[Hg][O]C(C)=O` (centres undefined): the T/C under setting [1] was 95 % of control and the T/C under setting [2] is 114 % of control.

In the case of `COc1cc2c(c(OC)c1OC)CC1c3c(cc4c(c3-2)OCO4)CCN1C` (centres undefined), the T/C is 98 % of control (dose: 37.5 mg/kg/injection, schedule: Q01DX009 (ip), vehicle: Klucel (hydroxypropylcellulose) (HPC)); 102 % of control (dose: 75.0 mg/kg/injection, schedule: Q01DX009 (ip), vehicle: Klucel (hydroxypropylcellulose) (HPC)); 124 % of control (dose: 150.0 mg/kg/injection, schedule: Q01DX009 (ip), vehicle: Klucel (hydroxypropylcellulose) (HPC)).

As for `CC(=O)N/N=C(/C)C(O)(c1ccccc1)c1ccccc1`, the T/C reads like this: under setting [3], 99 % of control; under setting [4], 103 % of control; under setting [5], 100 % of control; under setting [6], 99 % of control; under setting [7], 99 % of control; under setting [8], 87 % of control.

Turning to `CCOC(=O)c1oc2ccccc2c1CN`, the T/C runs as follows: under setting [9], 107 % of control; under setting [3], 107 % of control.

As for `O=C1C(N2CCOCC2)=C(N2CC2)C(=O)C(N2CCOCC2)=C1N1CC1`, the T/C is 105 % of control (dose: 1.5 mg/kg/injection, schedule: Q01DX009 (ip), vehicle: saline); 94 % of control (dose: 3.0 mg/kg/injection, schedule: Q01DX009 (ip), vehicle: saline); 94 % of control (dose: 6.0 mg/kg/injection, schedule: Q01DX009 (ip), vehicle: saline).

On to `O=C1NC(=O)N(c2ccccc2)C(=O)/C1=C/c1ccccc1`, for which the T/C reads like this: (dose: 50.0 mg/kg/injection, schedule: Q01DX001 (ip), vehicle: saline sonified) 110 % of control; (dose: 100.0 mg/kg/injection, schedule: Q01DX001 (ip), vehicle: saline sonified) 105 % of control; (dose: 200.0 mg/kg/injection, schedule: Q01DX001 (ip), vehicle: saline sonified) 100 % of control.

As to `CCCCNC(C)(C)C(SS)c1ccc(Cl)cc1` (centres undefined), the T/C (dose: 50.0 mg/kg/injection, schedule: Q01DX009 (ip), vehicle: Klucel (hydroxypropylcellulose) (HPC)) is 100 % of control; the T/C under setting [10] is 115 % of control; the T/C under setting [11] was 95 % of control; the T/C under setting [12] is 105 % of control; the T/C under setting [13] was 100 % of control.

As for `COc1ccc(C2CCCCC2O)cc1` (centres undefined), the T/C runs as follows: under setting [10], 100 % of control; under setting [11], 100 % of control; under setting [12], 100 % of control; under setting [13], 100 % of control; under setting [14], 110 % of control.

In the case of `COC1/C=C/OC2(C)Oc3c(C)c(O)c4c(O)c(c(/C=N/N5CCN(Cc6ccccc6)CC5)c(O)c4c3C2=O)NC(=O)C(C)=C/C=C/C(C)C(O)C(C)C(O)C(C)C(OC(C)=O)C1C` (centres undefined), the T/C was 119 % of control under setting [15] and 100 % of control (dose: 50.0 mg/kg/injection, schedule: Q01DX009 (ip), vehicle: saline).

In the case of `COc1cc2ccc(C(C)NCC(=O)O)cc2cc1OC` (centres undefined), the T/C by setting is: under setting [10], 100 % of control; under setting [11], 100 % of control; under setting [12], 104 % of control; under setting [13], 100 % of control; under setting [16], 109 % of control; under setting [14], 109 % of control.

In the case of `COC(=O)[C@H]1[C@H]2C[C@@H]3c4[nH]c5cc(OC)ccc5c4CCN3C[C@H]2C[C@@H](OC(=O)/C=C/c2cc(OC)c(OC)c(OC)c2)[C@@H]1OC`, the T/C is, setting by setting: (dose: 0.63 mg/kg/injection, schedule: Q01DX009 (ip), vehicle: saline with Tween-80) 90 % of control; (dose: 1.25 mg/kg/injection, schedule: Q01DX009 (ip), vehicle: saline with Tween-80) 90 % of control; (dose: 2.5 mg/kg/injection, schedule: Q01DX009 (ip), vehicle: saline with Tween-80) 90 % of control.

For the compound `CN(C)c1ccc(NC(=O)C(c2ccccc2)c2ccccc2)cc1`, the T/C is 86 % of control (dose: 50.0 mg/kg/injection, schedule: Q01DX005 (ip), vehicle: saline); 90 % of control (dose: 100.0 mg/kg/injection, schedule: Q01DX005 (ip), vehicle: saline); 109 % of control (dose: 200.0 mg/kg/injection, schedule: Q01DX005 (ip), vehicle: saline).

For `CCC(=O)Nc1ccc(C)cc1C`, the T/C under setting [10] is 104 % of control; the T/C under setting [11] was 104 % of control; the T/C under setting [12] is 100 % of control; the T/C under setting [13] is 90 % of control; the T/C under setting [16] was 95 % of control; the T/C under setting [14] is 90 % of control.

`COc1ccc(OC)c(/C=N/N=C/c2cc(OC)ccc2OC)c1`: the T/C is 104 % of control under setting [17], 100 % of control under setting [18] and 104 % of control under setting [19].

`O=C(O)C(CSC(c1ccccc1)(c1ccccc1)c1ccccc1)N=Cc1ccccc1O` (centres undefined): the T/C is 159 % of control under setting [9]; 104 % of control (dose: 66.0 mg/kg/injection, schedule: Q04DX003 (ip), vehicle: saline with Tween-80); 186 % of control under setting [3]; 190 % of control under setting [4]; 177 % of control (dose: 150.0 mg/kg/injection, schedule: Q04DX003 (ip), vehicle: saline with Tween-80); 272 % of control under setting [5].

Regarding `Nc1ccccc1-n1nc2ccc3ccccc3c2n1`, the T/C was 105 % of control under setting [3]; 90 % of control (dose: 132.0 mg/kg/injection, schedule: Q01DX009 (ip), vehicle: saline with Tween-80); 100 % of control under setting [5]; 95 % of control (dose: 300.0 mg/kg/injection, schedule: Q01DX009 (ip), vehicle: saline with Tween-80); 105 % of control under setting [7].

Regarding `CCN(C(=O)Nc1ccccc1Cl)c1ccccc1`, the T/C under setting [17] was 95 % of control, the T/C under setting [18] was 100 % of control and the T/C under setting [19] is 100 % of control.

With `C=CC[Se]c1nc(N)nc2c1ncn2C1OC(CO)C(O)C1O` (centres undefined), the T/C reads like this: under setting [2], 105 % of control; under setting [20], 100 % of control; (dose: 12.5 mg/kg/injection, schedule: Q01DX009 (ip), vehicle: saline) 111 % of control; under setting [21], 100 % of control; under setting [15], 100 % of control; under setting [22], 95 % of control and 104 % of control. The T/C (dose: 50.0 mg/kg/injection, schedule: Q04DX003 (ip), vehicle: saline) is 90 % of control and the T/C (dose: 100.0 mg/kg/injection, schedule: Q04DX003 (ip), vehicle: saline) is 90 % of control.

Turning to `Cc1ncc(/C=C/C(=O)O)c(C=O)c1O`, the T/C by setting is: under setting [20], 103 % of control; under setting [21], 101 % of control; under setting [22], 100 % of control.

Turning to `C[C@]12CC[C@@H](O)C[C@H]1CC[C@@H]1[C@@H]2CC[C@]2(C)C(=O)CC[C@@H]12`, the T/C was 90 % of control under setting [3]; 105 % of control under setting [4]; 90 % of control under setting [5]; 100 % of control under setting [6]; 90 % of control under setting [7]; 100 % of control under setting [8].

`CC(=O)OC1C(CO)OC2C1Oc1nc(=N)c(F)cn12` (centres undefined): the T/C runs as follows: (dose: 1.56 mg/kg/injection, schedule: Q01DX009 (ip), vehicle: saline) 176 % of control; under setting [1], 92 % of control and 102 % of control.

(Values after PubChem BioAssay AID328 (DTP/NCI, 2004).)
